Test results taken from US20220348590A1, “CYCLOOXYGENASE-2 INHIBITORS AND USES THEREOF” (The Board Institute, Inc., priority 2019, published 2022).
pIC50: −log10 of the molar value. Read-outs that look alike come from different tables or passages of the source.

Biological target: T1, human recombinant COX2 (hCOX2) (UniProt P35354)
T1 sequence (P35354 1-604): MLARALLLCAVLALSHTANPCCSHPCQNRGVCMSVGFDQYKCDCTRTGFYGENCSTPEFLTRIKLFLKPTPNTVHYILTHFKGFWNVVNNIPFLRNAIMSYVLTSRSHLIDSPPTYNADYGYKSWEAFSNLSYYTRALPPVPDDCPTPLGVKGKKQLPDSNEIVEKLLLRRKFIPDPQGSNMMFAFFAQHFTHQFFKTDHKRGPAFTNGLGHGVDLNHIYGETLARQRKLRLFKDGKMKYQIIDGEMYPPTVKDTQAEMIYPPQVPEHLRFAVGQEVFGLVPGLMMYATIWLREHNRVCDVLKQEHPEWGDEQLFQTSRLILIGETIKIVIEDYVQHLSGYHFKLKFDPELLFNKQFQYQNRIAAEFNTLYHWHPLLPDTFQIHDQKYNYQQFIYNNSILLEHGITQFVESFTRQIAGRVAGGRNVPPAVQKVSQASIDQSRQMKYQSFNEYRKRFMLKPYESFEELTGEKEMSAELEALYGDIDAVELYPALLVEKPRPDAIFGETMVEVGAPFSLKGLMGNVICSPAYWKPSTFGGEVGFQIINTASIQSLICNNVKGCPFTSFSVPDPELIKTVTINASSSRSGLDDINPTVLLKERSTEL
Assay: LCMS-based COX2 enzymatic inhibition assay (PGE2 quantification)
Format: biochemical
Set-up: COX2 2 minutes pge2/pge2d4 area ratio Avg; other: 2 minutes; readout pge2/pge2d4 area ratio; average; COX2 2 minutes pge2/pge2d4 area ratio Avg; LLE; average LLE; COX2 2 minutes pge2 area (counts) Avg; readout pge2 area (counts); other: 2 min; "ovine COX2 (oCOX2), human recombinant COX2 (hCOX2)"
Details: for COX2 2 minutes pge2/pge2d4 area ratio Avg. LLE / COX2 2 minutes pge2 area (counts) Avg. LLE / COX2 10 minutes pge2 area (counts) Avg. LLE: average LLE; for pIC50: average
In short: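 PGE2 formed from arachidonic acid (final 5 μM, 2 min) was measured by LC-MS-MS against DMSO controls. Enzyme (oCOX-1 0.1 μg or hCOX2 0.2 μg) with hematin/epinephrine cofactors at pH 8.0 was given 10 min at 37 °C with compound first. Twelve-point curves run three times gave IC50.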

[1] = 2 minutes, readout pge2/pge2d4 area ratio
[2] = 2 minutes, readout pge2/pge2d4 area ratio, read-out: COX2 2 minutes pge2/pge2d4 area ratio Avg. IC50
[3] = 2 minutes, readout pge2 area (counts)
[4] = 2 minutes, readout pge2 area (counts), read-out: COX2 2 minutes pge2 area (counts) Avg. IC50
[5] = 10 minutes, readout pge2 area (counts)
[6] = 10 minutes, readout pge2 area (counts), read-out: COX2 10 minutes pge2 area (counts) Avg. IC50

Structure (SMILES) | COX2 2 minutes pge2/pge2d4 area ratio Avg. LLE [1] | pIC50 [2] | COX2 2 minutes pge2 area (counts) Avg. LLE [3] | pIC50 [4] | COX2 10 minutes pge2 area (counts) Avg. LLE [5] | pIC50 [6]
CS(=O)(=O)c1ccc(-c2cccc(C(=O)C(=O)c3cccs3)n2)cc1 [Compound 190] | 3.528 | 6.15 | 3.498 | 6.11 | – | –
CO/N=C(\c1ccc2ccn(-c3ccc(S(C)(=O)=O)cc3)c2n1)c1cccs1 [Compound 191] | – | 6.13 | – | 6.05 | – | –
CS(=O)(=O)c1ccc(-c2cncc(NC(=O)c3cccs3)n2)cc1 [Compound 192] | 4.414 | 6.12 | 4.524 | 6.22 | – | –
CS(=O)(=O)c1ccc(-c2cncc(SCc3ccno3)n2)cc1 [Compound 193] | 4.9351 | 6.11 | 4.813 | 5.96 | – | –
CS(=O)(=O)c1ccc(-c2cccc(Nc3ccccc3)n2)cc1 [Compound 194] | 2.607 | 6.05 | 2.538 | 5.98 | – | –
CS(=O)(=O)c1ccc(-n2ccc3ccc(/C(=N/O)c4cccs4)nc32)cc1 [Compound 195] | – | 6.05 | – | 6.01 | – | –
COc1ncc(NCc2cccs2)cc1-c1ccc(S(C)(=O)=O)cc1 [Compound 196] | 2.588 | 6.05 | 2.528 | 5.99 | – | –
Cn1nccc1CNc1cccc(-c2ccc(S(C)(=O)=O)cc2)n1 [Compound 197] | 3.969 | 6.02 | 4.01 | 6.08 | – | –
CN(Cc1ccco1)c1cccc(-c2ccc(S(C)(=O)=O)cc2)n1 [Compound 200] | 2.819 | 6.00 | 2.726 | 5.86 | – | –
CS(=O)(=O)c1ccc(-c2cncc(NCc3cncs3)n2)cc1 [Compound 201] | 4.51 | 6.00 | 4.612 | 6.08 | – | –
CS(=O)(=O)c1ccc(-c2cncc(NCc3ccno3)n2)cc1 [Compound 202] | 5.815 | 5.98 | 5.757 | 5.92 | – | –
CS(=O)(=O)c1ccc(-c2cncc(NCc3nccs3)n2)cc1 [Compound 203] | 4.216 | 5.94 | 4.434 | 6.09 | – | –
CS(=O)(=O)c1ccc(-c2ccc3c(n2)N(Cc2cccs2)C(=O)C3)cc1 [Compound 204] | 2.522 | 5.93 | 2.252 | 5.69 | – | –
CS(=O)(=O)c1ccc(-c2cccc([C@@H](O)Cc3cccs3)n2)cc1 [Compound 205] | 3.07 | 5.90 | 3.131 | 5.97 | – | –
CS(=O)(=O)c1ccc(-c2cccc(C(=O)Cc3cccs3)n2)cc1 [Compound 206] | 2.741 | 5.90 | 2.638 | 5.80 | – | –
CC(=O)c1ncc(-c2ccc(S(C)(=O)=O)cc2)nc1NCc1cccs1 [Compound 207] | 3.8683 | 5.88 | 3.915 | 5.97 | – | –

Structure (SMILES) | COX2 2 minutes pge2/pge2d4 area ratio Avg. LLE [1] | pIC50 [2] | COX2 2 minutes pge2 area (counts) Avg. LLE [3] | pIC50 [4] | COX2 10 minutes pge2 area (counts) Avg. LLE [5] | pIC50 [6]
CS(=O)(=O)c1ccc(-c2cncc(NCc3ccc(F)nc3)n2)cc1 [Compound 208] | 4.4967 | 5.87 | 4.501 | 5.88 | 5.151 | 6.45
CS(=O)(=O)c1ccc(-c2cnc3ncn(Cc4cccs4)c3n2)cc1 [Compound 210] | 2.8514 | 5.85 | 2.964 | 5.93 | 3.939 | 6.95
CS(=O)(=O)c1ccc(-c2cncc(Oc3ccc(F)cc3)n2)cc1 [Compound 211] | 3.18 | 5.85 | 3.779 | 5.91 | 3.305 | 5.78
CS(=O)(=O)c1ccc(-c2cncc(OCc3ccc(Cl)o3)n2)cc1 [Compound 212] | 2.9422 | 5.83 | 2.889 | 5.78 | – | –
CS(=O)(=O)c1ccc(-c2cncc(SCc3cnoc3)n2)cc1 [Compound 213] | 4.567 | 5.83 | 4.663 | 5.88 | – | –
CO/N=C(/c1ccc2ccn(-c3ccc(S(C)(=O)=O)cc3)c2n1)c1cccs1 [Compound 214] | – | 5.82 | – | 5.92 | – | –
CS(=O)(=O)c1ccc(-c2cncc(NCc3cnco3)n2)cc1 [Compound 215] | 4.859 | 5.82 | 4.845 | 5.80 | – | –
CS(=O)(=O)c1ccc(-c2cccc(NCc3cnco3)n2)cc1 [Compound 216] | 3.544 | 5.81 | 3.646 | 5.91 | – | –
CS(=O)(=O)c1ccc(-c2cncc(SCc3ncco3)n2)cc1 [Compound 217] | 3.66 | 5.81 | 3.522 | 5.65 | – | –
CS(=O)(=O)c1ccc(-c2cnc(C(N)=O)c(NCc3cccs3)n2)cc1 [Compound 219] | 4.686 | 5.79 | 4.669 | 5.77 | – | –
CS(=O)(=O)c1ccc(-c2cc(NCc3cccs3)cnn2)cc1 [Compound 220] | 3.784 | 5.78 | 3.69 | 5.68 | – | –
CS(=O)(=O)c1ccc(-c2cncc(NCc3ccc(F)cn3)n2)cc1 [Compound 221] | 4.887 | 5.77 | 4.735 | 5.57 | 4.836 | 5.71
CS(=O)(=O)c1ccc(-c2cncc(/C=C/c3cccs3)n2)cc1 [Compound 223] | 2.992 | 5.73 | 2.918 | 5.65 | – | –
CS(=O)(=O)c1ccc(-c2cncc(NC[C@@H]3CCCO3)n2)cc1 [Compound 224] | 4.828 | 5.71 | 4.821 | 5.74 | – | –
CS(=O)(=O)c1ccc(-c2cncc(CCc3cccs3)n2)cc1 [Compound 225] | 3.328 | 5.70 | 3.249 | 5.62 | – | –
CS(=O)(=O)c1ccc(-c2cncc(SCc3cnco3)n2)cc1 [Compound 226] | 3.47 | 5.69 | 3.565 | 5.75 | – | –
